According to patent US7612077B2, “Crystalline forms of the anti-cancer compound ZD1839” (Astrazeneca AB, priority 2002, dated 2009):

Tests used:
[1] = stability of the crystalline physical form; assay type: physicochemical; conditions: solid crystalline form
[2] = stability in the presence of water / as aqueous suspension; assay type: physicochemical
Protocol: Form 5 ZD1839 trihydrate is a stable form of the compound of Formula I In particular, Form 5 ZD1839 trihydrate is very stable in the presence of water. For example, when Form 5 ZD1839 trihydrate is prepared as an aqueous suspension the resulting suspension is stable, whereas aqueous suspensions prepared using other forms of the compound of Formula I are prone to convert to Form 5 ZD1839 trihydrate during storage. In the case of aqueous suspensions of the compound of Formula I this can be problematic because the conversion of a less thermodynamically stable form to the Form 5 ZD1839 trihydrate can result in the growth of large crystals of the Form 5 ZD1839 trihydrate, thereby altering the particle size distribution in the suspension. […] Furthermore, if a variable mixture of two such forms of the compound of Formula I were to be present, the dissolution rate and bioavailability of the active compound(s) could be variable as a result of the different characteristics of the two forms.

stability of crystalline physical form [1] | stability in the presence of water ([2]; in the presence of water) | stability of aqueous suspension ([2]; prepared as an aqueous suspension, during storage) | Structure (SMILES)
very stable | – | – | COc1cc2ncnc(Nc3ccc(F)c(Cl)c3)c2cc1OCCCN1CCOCC1 [Form 3 ZD1839 DMSO solvate, 4-(3′-chloro-4′-fluoroanilino)-7-methoxy-6-(3-morpholinopropoxy)quinazoline mono-solvate with dimethyl sulphoxide]
– | very stable | stable | COc1cc2ncnc(Nc3ccc(F)c(Cl)c3)c2cc1OCCCN1CCOCC1 [Form 5 ZD1839 trihydrate, 4-(3′-chloro-4′-fluoroanilino)-7-methoxy-6-(3-morpholinopropoxy)quinazoline trihydrate]
of sufficient stability | – | – | COc1cc2ncnc(Nc3ccc(F)c(Cl)c3)c2cc1OCCCN1CCOCC1 [Form 2 ZD1839 MeOH solvate, 4-(3′-chloro-4′-fluoroanilino)-7-methoxy-6-(3-morpholinopropoxy)quinazoline hemi-methanolate]
highly stable | – | – | COc1cc2ncnc(Nc3ccc(F)c(Cl)c3)c2cc1OCCCN1CCOCC1 [Form 1 ZD1839 polymorph, 4-(3′-chloro-4′-fluoroanilino)-7-methoxy-6-(3-morpholinopropoxy)quinazoline]
